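Growth conditions: 96-well plates. Treatment: test compound, 48 hours, 5 concentrations. Analysis: linear interpolation between bracketing concentrations; unreached endpoints set to highest concentration. The concentration for full growth arrest is given as TGI.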
Columns and labels:
Assay in all cases: NCI-60 cell line screen, 48 h
SF-295 CNS = test system: SF-295 CNS
OVCAR-5 ovarian = test system: OVCAR-5 ovarian
DU-145 prostate = test system: DU-145 prostate
UO-31 renal = test system: UO-31 renal
BT-549 breast = test system: BT-549 breast
MDA-MB-231 breast = test system: MDA-MB-231 breast
SK-MEL-2 melanoma = test system: SK-MEL-2 melanoma
UACC-62 melanoma = test system: UACC-62 melanoma
RXF 393 renal = test system: RXF 393 renal
UACC-257 melanoma = test system: UACC-257 melanoma
MDA-MB-435 = test system: MDA-MB-435
HCC-2998 colon = test system: HCC-2998 colon
T-47D breast = test system: T-47D breast
SK-MEL-5 melanoma = test system: SK-MEL-5 melanoma
NCI-H226 lung = test system: NCI-H226 lung
RPMI-8226 leukemia = test system: RPMI-8226 leukemia
COLO 205 colon = test system: COLO 205 colon
HL-60(TB) leukemia = test system: HL-60(TB) leukemia
SN12C renal = test system: SN12C renal
SNB-75 CNS = test system: SNB-75 CNS

SMILES | TGI (SF-295 CNS) [µM] | TGI (OVCAR-5 ovarian) [µM] | TGI (DU-145 prostate) [µM] | TGI (UO-31 renal) [µM] | TGI (BT-549 breast) [µM] | TGI (MDA-MB-231 breast) [µM] | TGI (SK-MEL-2 melanoma) [µM] | TGI (UACC-62 melanoma) [µM] | TGI (RXF 393 renal) [µM] | TGI (UACC-257 melanoma) [µM] | TGI (MDA-MB-435) [µM] | TGI (HCC-2998 colon) [µM] | TGI (T-47D breast) [µM] | TGI (SK-MEL-5 melanoma) [µM] | TGI (NCI-H226 lung) [µM] | TGI (RPMI-8226 leukemia) [µM] | TGI (COLO 205 colon) [µM] | TGI (HL-60(TB) leukemia) [µM] | TGI (SN12C renal) [µM] | TGI (SNB-75 CNS) [µM]
COC1O[C@H]2[C@H]3[C@@H]1[C@@H](OS(=O)(=O)c1ccc(C)cc1)C(=O)N3C[C@H]2O (stereo not given in full) | > 100 | > 100 | > 100 | > 100 | > 100 | > 100 | > 100 | > 100 | 81.7 | > 100 | > 100 | > 100 | > 100 | > 100 | > 100 | > 100 | > 100 | – | – | –
C#CCCCOc1ncccn1 | > 100 | > 100 | > 100 | > 100 | > 100 | > 100 | > 100 | > 100 | > 100 | > 100 | > 100 | > 100 | > 100 | > 100 | > 100 | > 100 | > 100 | > 100 | > 100 | –
COc1cccc(Cc2cc(=O)c3ccc(C)nc3[nH]2)c1 | > 100 | > 100 | > 100 | > 100 | > 100 | > 100 | > 100 | > 100 | > 100 | > 100 | > 100 | – | > 100 | > 100 | > 100 | > 100 | > 100 | > 100 | > 100 | > 100
Cn1/c(=N\N=C(\CNCCO)[C@@H](O)[C@@H]2OC(c3ccccc3)OC[C@H]2O)sc2ccccc21 (stereo not given in full) | 33.9 | 40.3 | 35.1 | 30.1 | 37.2 | 29.8 | 33.3 | 31.2 | 30.9 | 39 | 35 | 32 | 47 | 28.5 | – | – | 30.9 | – | 35.2 | 32.3
Cc1nc2ccccc2c(=O)n1NC(=S)Nc1ccc(Cl)cc1[N+](=O)[O-] | > 100 | > 100 | > 100 | > 100 | > 100 | > 100 | > 100 | > 100 | > 100 | > 100 | > 100 | – | > 100 | > 100 | – | > 100 | > 100 | > 100 | > 100 | > 100
COC(=O)/C=C(/OC)[C@H](C)[C@H](/C=C/c1csc(-c2csc(C(C)C)n2)n1)OC | > 100 | > 100 | > 100 | > 100 | > 100 | > 100 | > 100 | > 100 | > 25 | > 100 | > 100 | – | > 100 | 19.9 | > 100 | 65.8 | > 100 | 99.5 | > 100 | > 100
Cc1ccc(C(=O)OCC(C)C)cc1N=NN(C)C | > 87.5 | > 100 | > 100 | > 100 | > 100 | > 100 | > 100 | > 100 | – | 71.1 | > 100 | > 100 | > 100 | > 100 | > 100 | > 100 | > 100 | > 100 | > 100 | –
Cc1ccc(/C=C2\Cc3cccc(C)c3C2=O)c(C(=O)O)c1 | > 100 | > 100 | > 100 | 31.4 | > 100 | > 100 | – | – | > 100 | > 100 | – | > 100 | > 100 | > 100 | > 100 | > 100 | – | > 100 | > 100 | > 100
CCCCCCCCCCCCCCCCOCC(CCl)OP(=O)(O)OP(=O)(O)OCC1OC(n2ccc(N)nc2=O)C(O)C1O (stereo not given) | > 100 | > 100 | – | > 100 | > 100 | > 100 | > 100 | > 100 | > 100 | > 100 | > 100 | > 100 | > 100 | > 100 | > 100 | > 100 | > 100 | > 100 | > 100 | 22
Clc1cc(Br)c2c3c(c(Br)cc(Cl)c13)C(Br)=C2Br | > 100 | > 100 | 90.9 | > 100 | 78 | 82 | > 100 | 79.7 | – | > 100 | > 100 | 38.6 | – | – | > 100 | 58.9 | – | 56 | 44.7 | 71.7
C[Si](C)(OCCS(=O)(=O)O)OC(=C1S(=O)(=O)OCCOS1(=O)=O)c1cccc2ccccc12 | > 100 | > 100 | > 100 | > 100 | > 100 | > 100 | > 100 | – | > 100 | > 100 | > 100 | > 100 | – | > 100 | > 100 | > 100 | > 100 | 36.9 | > 100 | > 100
CNc1nnc(CNc2ccc(-c3nnc(NC)n3N)cc2)n1N | > 100 | > 100 | > 100 | > 100 | > 100 | > 100 | > 100 | – | > 100 | > 100 | > 100 | 93.8 | – | > 100 | > 100 | – | > 100 | > 100 | > 100 | > 100
CCOP(=O)(OCC)[C@H]1OC(C)(C)O[C@@H]1CO | > 100 | > 100 | > 100 | – | > 100 | > 100 | > 100 | > 100 | – | > 100 | > 100 | > 100 | > 100 | > 100 | – | > 100 | > 100 | > 100 | > 100 | –
CN(C)Cc1cc(C=O)cc(CN(C)C)c1O | > 100 | – | > 100 | > 100 | > 100 | > 100 | – | – | > 100 | > 100 | > 100 | > 100 | – | > 100 | > 100 | > 100 | > 100 | > 100 | > 100 | > 100
C1=NCCNCCNCCN=Cc2ccccc2OCc2cccc(n2)COc2ccccc21 | 94 | > 100 | > 100 | > 100 | > 100 | > 100 | > 100 | > 100 | > 100 | > 100 | 30 | – | > 100 | > 100 | > 100 | > 100 | > 100 | 73.7 | > 100 | > 100
[O-][n+]1onc2c1/C(=N/O)CCC2 | > 100 | > 100 | > 100 | > 100 | – | > 100 | > 100 | > 100 | > 100 | > 100 | > 100 | > 100 | > 100 | > 100 | > 100 | > 100 | > 100 | > 100 | > 100 | > 100
COc1ccc2c(ccc3c(COC(=O)NC(C)C)c(COC(=O)NC(C)C)n(C)c32)c1 | 46.2 | 30.8 | – | 28.9 | 29.4 | 34.2 | 32.5 | 18.4 | 22.2 | 27.1 | 44.1 | – | 82.6 | 28.4 | 23.2 | > 100 | 22.6 | – | – | 15.8
CC(O)C1(CNc2cc(Cl)nc(N)n2)CC(CCc2ccccc2)C1 (stereo not given) | 27.6 | 33.9 | 35.9 | 24.6 | 33.6 | 22.5 | 31.7 | 24.5 | 30.8 | 19.8 | 26.6 | – | 44.1 | 19.7 | 30.8 | 43.1 | 28.8 | 41.7 | 20.9 | 40
CN(C)/C=N/NC(=O)/C(C#N)=C/N(C)C | > 100 | > 100 | > 100 | > 100 | – | > 100 | > 100 | > 100 | > 100 | > 100 | > 100 | > 100 | > 100 | > 100 | > 100 | > 100 | > 100 | > 100 | > 100 | > 100
COc1cc(N(Cc2ccc3nc(OC)c(OC)nc3c2)Cc2ccc3nc(OC)c(OC)nc3c2)cc(OC)c1OC | > 50 | > 50 | > 50 | > 50 | > 50 | – | > 50 | > 50 | 41.6 | > 50 | > 50 | – | > 50 | > 50 | > 50 | > 50 | > 50 | > 50 | > 50 | 15.6
Cc1ccc2c(=O)cc(-c3ccsc3)[nH]c2n1 | 23.6 | > 100 | > 89.8 | 9.47 | > 100 | > 87.6 | > 30.6 | > 100 | > 31 | > 100 | – | 42.9 | > 74.9 | > 28.5 | 56.8 | – | 12.8 | 20.2 | > 86.2 | 35
CC(=O)O[C@H]1CCC2[C@@H]3CCC4Cc5nc6c(nc5C[C@]4(C)C3CC[C@@]21C)CC1CC[C@@H]2C(CC[C@@]3(C)C2CC[C@@H]3C(C)CCCC(C)C)[C@@]1(C)C6 (stereo not given in full) | > 100 | > 100 | > 100 | > 100 | > 100 | > 100 | > 100 | > 100 | > 100 | > 100 | > 100 | – | > 100 | > 100 | > 100 | > 100 | > 100 | > 100 | > 100 | > 100
Cc1ccc(-c2nc(-c3cnccn3)n(C3OC(CO)C(O)C(O)C3O)n2)cc1 (stereo not given) | > 100 | > 100 | > 100 | > 100 | > 100 | > 100 | – | > 100 | > 100 | > 100 | > 100 | > 100 | > 100 | > 100 | – | > 100 | > 100 | > 100 | > 100 | > 100
Cc1cc(-c2nc3ccc(F)cc3s2)ccc1N | > 100 | > 100 | > 100 | > 100 | > 100 | > 100 | > 100 | > 100 | > 100 | > 100 | > 100 | > 100 | – | > 100 | > 100 | > 100 | > 100 | – | > 100 | > 100
COC(=O)CSC(=S)Nc1nnc(NC(=S)SCOC(C)=O)n1C(=S)SCC(=O)OC | > 100 | > 100 | > 100 | > 100 | > 100 | – | – | > 100 | > 100 | > 100 | > 100 | > 100 | – | > 100 | – | > 100 | > 100 | > 100 | > 100 | –
O=c1[nH]c(=O)n(C2CC(O)C(CO)O2)cc1OCC1CCCCC1 (stereo not given) | > 100 | > 100 | > 100 | > 100 | > 100 | > 100 | – | > 100 | > 100 | > 100 | > 100 | – | > 100 | > 100 | > 100 | – | > 100 | > 100 | > 100 | > 100
